In ChEMBL document CHEMBL1201862, “PubChem BioAssay data set” (2004):
Active and inactive are the calls of the source.

Legend:
Leucine aminopeptidase = target: T1, Leucine aminopeptidase (Plasmodium falciparum 3D7, UniProt Q8IL11); experiment: P. falciparum M17LAP inhibitors, primary screen, biochemical, fluorogenic H-Leu-NHMec substrate, 1536-well (AID 1619); type: functional
T1 sequence (Q8IL11 whole entry): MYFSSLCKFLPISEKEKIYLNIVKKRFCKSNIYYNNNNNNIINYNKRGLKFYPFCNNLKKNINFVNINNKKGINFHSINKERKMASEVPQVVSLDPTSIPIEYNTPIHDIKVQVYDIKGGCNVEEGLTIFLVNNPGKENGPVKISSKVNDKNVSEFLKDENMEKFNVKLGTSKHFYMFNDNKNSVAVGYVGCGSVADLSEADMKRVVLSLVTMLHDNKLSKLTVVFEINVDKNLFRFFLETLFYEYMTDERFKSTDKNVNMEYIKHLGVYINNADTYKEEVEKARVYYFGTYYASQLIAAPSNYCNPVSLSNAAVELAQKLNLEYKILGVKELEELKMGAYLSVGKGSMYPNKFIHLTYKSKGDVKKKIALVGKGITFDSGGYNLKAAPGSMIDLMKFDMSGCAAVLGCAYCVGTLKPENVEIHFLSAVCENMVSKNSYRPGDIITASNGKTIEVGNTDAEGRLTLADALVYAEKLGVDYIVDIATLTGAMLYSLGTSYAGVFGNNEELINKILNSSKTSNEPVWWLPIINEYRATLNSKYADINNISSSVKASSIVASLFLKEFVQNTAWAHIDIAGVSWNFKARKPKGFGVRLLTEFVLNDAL

Aminopeptidase N = target: T2, Aminopeptidase N (Plasmodium falciparum FcB1/Columbia, UniProt O96935); experiment: malaria alanyl aminopeptidase activity blockers – biochemical, fluorogenic H-Leu-NHMec substrate, 1536-well (AID 1445); parameters: species or system Plasmodium falciparum 3D7, 3D7
T2 sequence (O96935 whole entry): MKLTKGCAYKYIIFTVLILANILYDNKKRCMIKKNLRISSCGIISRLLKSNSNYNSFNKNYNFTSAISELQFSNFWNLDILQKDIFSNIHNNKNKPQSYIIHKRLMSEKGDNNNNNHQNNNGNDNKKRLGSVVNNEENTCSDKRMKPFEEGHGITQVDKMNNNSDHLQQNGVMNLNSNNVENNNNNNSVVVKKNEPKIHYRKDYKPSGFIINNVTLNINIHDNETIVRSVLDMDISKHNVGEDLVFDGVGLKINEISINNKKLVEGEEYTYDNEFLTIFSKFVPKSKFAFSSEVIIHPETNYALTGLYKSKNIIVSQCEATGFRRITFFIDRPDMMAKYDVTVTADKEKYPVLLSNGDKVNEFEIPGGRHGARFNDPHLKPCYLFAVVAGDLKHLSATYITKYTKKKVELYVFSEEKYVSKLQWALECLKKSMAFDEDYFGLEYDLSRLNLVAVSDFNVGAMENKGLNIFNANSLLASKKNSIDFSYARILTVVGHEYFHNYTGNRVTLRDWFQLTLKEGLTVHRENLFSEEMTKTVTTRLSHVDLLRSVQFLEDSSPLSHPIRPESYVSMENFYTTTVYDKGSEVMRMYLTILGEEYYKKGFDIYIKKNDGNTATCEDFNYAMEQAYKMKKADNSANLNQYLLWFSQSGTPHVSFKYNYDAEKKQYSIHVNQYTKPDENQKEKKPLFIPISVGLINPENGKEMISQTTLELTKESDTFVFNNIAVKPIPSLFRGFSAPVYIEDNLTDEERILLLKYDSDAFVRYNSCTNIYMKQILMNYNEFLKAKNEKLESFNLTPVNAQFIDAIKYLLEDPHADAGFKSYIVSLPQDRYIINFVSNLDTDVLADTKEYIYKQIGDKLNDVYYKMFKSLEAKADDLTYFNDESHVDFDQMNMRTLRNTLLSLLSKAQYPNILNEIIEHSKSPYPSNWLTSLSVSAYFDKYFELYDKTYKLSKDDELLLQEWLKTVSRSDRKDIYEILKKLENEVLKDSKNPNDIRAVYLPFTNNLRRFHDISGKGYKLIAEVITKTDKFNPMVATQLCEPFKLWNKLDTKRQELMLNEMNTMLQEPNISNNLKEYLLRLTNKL

[1] = target: T3, Heat shock factor protein 1 (Mus musculus, UniProt P38532); experiment: decrease of HSF1-responsive luciferase luminescence – cell-based, NIH3T3, dose retest, confirmation (AID 2382); type: functional;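 also: NIH3T3 fibroblasts with HSF1-driven luciferase reporter stressed by proteasome inhibitor MG132; luminescence from HSF1-driven luciferase expression after 8 hours of MG132 stress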
T3 sequence (P38532 whole entry): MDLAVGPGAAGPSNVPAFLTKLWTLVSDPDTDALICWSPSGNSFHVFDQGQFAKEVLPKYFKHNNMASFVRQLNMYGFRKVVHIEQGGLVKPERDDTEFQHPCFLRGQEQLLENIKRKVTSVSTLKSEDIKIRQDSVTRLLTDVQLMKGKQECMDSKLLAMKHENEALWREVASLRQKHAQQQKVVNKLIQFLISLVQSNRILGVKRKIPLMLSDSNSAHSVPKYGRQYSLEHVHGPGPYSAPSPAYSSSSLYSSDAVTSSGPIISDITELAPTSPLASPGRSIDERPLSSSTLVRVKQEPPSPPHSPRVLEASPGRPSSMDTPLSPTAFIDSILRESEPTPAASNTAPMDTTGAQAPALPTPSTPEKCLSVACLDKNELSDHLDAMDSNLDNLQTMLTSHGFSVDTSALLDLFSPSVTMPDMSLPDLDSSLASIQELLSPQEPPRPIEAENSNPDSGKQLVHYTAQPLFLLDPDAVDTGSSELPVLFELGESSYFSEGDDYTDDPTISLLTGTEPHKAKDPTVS

Albumin = Albumin (Bos taurus, UniProt P02769); experiment: Counterscreen for inhibitors of T-cell receptor (TCR)-CD3 interaction: Fluorescence-based biochemical high throughput dose response assay to identify inhibitors of T-cell receptor (TCR)-CD3 interaction using a TAMRA-labeled BSA probe.; type: functional
[2] = target: Endoplasmic reticulum aminopeptidase 1 (Homo sapiens, UniProt Q9NZ08); experiment: inhibition of human ERAP1 enzyme activity – biochemical, cherry-pick, set 2, plate reader, dose response (AID 743314)
[3] = P. falciparum Dd2 growth inhibitors, dose response, SYBR Green, cherry-picked samples (AID 1159567); type: functional, cell-based
[4] = toxicity to human hepatoma HepG2 cells – cell-based, cherry-picked samples, cytotoxicity control, dose response (AID 1159577); type: functional
[5] = OVCAR-3 cell viability loss – plate reader, dry powder samples, PAX8 inhibitor project, dose response (AID 743044); type: functional, cell-based
[6] = IGROV1 cell killing – plate reader, dry powder samples, PAX8 inhibitor project, dose response (AID 743043); type: functional, cell-based; conditions: IGROV-1
[7] = OVCAR8 cell viability loss – plate reader, dry powder samples, PAX8 project, dose response (AID 743197); type: functional, cell-based; conditions: OVCAR-8
[8] = growth inhibition of yeast DHODH-expressing 3D7 parasites – SYBR Green, dry powder samples, dose response (AID 1159570); type: functional, cell-based;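 also: parasite growth measured after 72 hours of compound exposure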
[9] = toxicity to human HepG2 hepatoma cells – cell-based, plate reader, dry powder samples, cytotoxicity control, dose response (AID 1159569); type: functional;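 also: inhibitor potency with signal falling toward the positive control level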
[10] = Dd2 malaria parasite growth inhibition potency – SYBR Green, dry powder samples, dose response (AID 1159566); type: functional, cell-based;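 also: potency for growth inhibition with lower SYBR green DNA signal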
[11] = growth inhibition of PfATP4-mutant resistant parasites – NITD609-resistant line, SYBR Green, dry powder, dose response (AID 1159571); type: functional, cell-based;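 also: parasites synchronized at ring stage by sorbitol before testing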
Major prion protein = Major prion protein (Homo sapiens, UniProt P04156); type: functional, cell-based

CC/C(NNC(=O)c1ccccc1O)=C1/C(=O)NC(=O)N(Cc2ccccc2)C1=O
IC50 (Leucine aminopeptidase): 47.3 µM (active) | IC50 (Aminopeptidase N): 7.8 µM (active) | EC50 [1]: 30.2 µM (active) | IC50 (Albumin): > 94.1 µM (inactive)

CCCc1cc(=O)oc2c(CN(CC)CC)c(O)c(Cl)cc12
IC50 (Aminopeptidase N): 37 µM (active) | AC50 [2]: 7.13 µM (active)

CCCNC[C@@H]1[C@@H](c2ccc(C3=CCCC3)cc2)[C@@H](CO)N1C(=O)C1CCCC1
AC50 [3]: 4 µM (active) | AC50 [4]: 32.4 µM (active)

Cc1ccc(-c2ccc([C@@H]3[C@H](CO)N4CCCCN(C(=O)Nc5cccc(F)c5)C[C@@H]34)cc2)cc1
AC50 [5]: 7.83 µM (active) | AC50 [6]: 18.1 µM (active) | AC50 [7]: > 70 µM (inactive)

C[C@@H]1CN([C@H](C)CO)C(=O)c2c(c3ccccc3n2C)-c2ccccc2CO[C@@H]1CN(C)C(=O)[C@H](C)c1ccccc1
AC50 [8]: 1.66 µM (active) | AC50 [9]: 45.5 µM (active) | AC50 [3]: 1.39 µM (active) | AC50 [10]: 1.1 µM (active) | AC50 [11]: 1.33 µM (active)

Cc1nc(SCC(=O)NNC(=O)c2ccc(F)cc2)c2ccccc2n1
IC50 (Major prion protein): 2.26 µM (active) | IC50 (cells): > 138 µM (inactive)

COc1cccc(NC(=O)N2[C@H](CO)[C@@H](c3ccccc3)[C@H]2CNCC(C)C)c1
AC50 [8]: 1.44 µM (active) | AC50 [9]: 43.5 µM (active) | AC50 [3]: 1.75 µM (active) | AC50 [10]: 1.58 µM (active) | AC50 [11]: 1.64 µM (active)

CCCCOc1ccc(C(=O)C2=C(O)C(=O)N(Cc3cccnc3)C2c2ccncc2)c(C)c1 (stereo not given)
IC50 (Major prion protein): 4.21 µM (active) | IC50 (cells): > 138 µM (inactive)
